The results in this text go back to ChEMBL document CHEMBL5335815, “The Greater Celandine: Identification and Characterization of an Antimicrobial Peptide from Chelidonium majus” (J Nat Prod, 2024).

Data set [1] deals with Proteinase K (Engyodontium album). Briefly: Inhibition of proteinase K (Engyodontium album).
Data set [2] is described as follows: Proteolytic stability assessed as proteinase K (unknown origin) mediated compound degradation incubated for 10 mins by LC-MS analysis. To be noted: human. Type of data set: ADME.
Data set [3] is described as follows: Proteolytic stability assessed as proteinase K (unknown origin)-mediated compound degradation in presence of reduced and alkylated cysteines measured after 10 mins by LC-MS analysis. Type of data set: ADME.
For another data set, the system named is Escherichia coli. Briefly: Induction of BasS protein expression in Escherichia coli assessed as fold increase at 5 microg/ml. The class given is functional. To be noted: dose 5.0 µg/ml.

The source made the active and inactive calls. No cut-off for these calls is given here. Bridge positions count the residues as written; N and C are the ends. Peptide text beside a SMILES is read from it.

Regarding `CC[C@H](C)[C@@H]1NC(=O)[C@H](Cc2ccccc2)NC(=O)[C@H](Cc2ccccc2)NC(=O)[C@H](CCCNC(=N)N)NC(=O)[C@H](CCCNC(=N)N)NC(=O)[C@H](CCCCN)NC(=O)[C@H](CCCCN)NC(=O)[C@H](CC(=O)O)NC(=O)[C@H](C(C)C)NC(=O)[C@H](CO)NC(=O)[C@H](CCCCN)NC(=O)[C@@H]2CSSC[C@@H](C(=O)N[C@@H](CC(N)=O)C(=O)O)NC(=O)[C@@H]3CSSC[C@H](N)C(=O)NCC(=O)N[C@@H](CSSC[C@H](NC(=O)[C@H]([C@@H](C)O)NC(=O)[C@@H]4CCCN4C1=O)C(=O)N[C@@H](CC(C)C)C(=O)N[C@@H](CCCNC(=N)N)C(=O)N[C@@H](CO)C(=O)N3)C(=O)N[C@@H](Cc1ccc(O)cc1)C(=O)N2` (H-CGCYCKSVDKKRRFFIPTCLRSCCN-OH; disulfide 1-23, 3-19, 5-24), the inhibition result in data set [1] was “inactive”. In addition, the Stability entry is on record as “Stable” in data set [2] and “Unstable” in data set [3].

Consider `CC[C@H](C)[C@H](NC(=O)[C@H](Cc1ccccc1)NC(=O)[C@H](Cc1ccccc1)NC(=O)[C@H](CCCNC(=N)N)NC(=O)[C@H](CCCNC(=N)N)NC(=O)[C@H](CCCCN)NC(=O)[C@H](CCCCN)NC(=O)[C@H](CC(=O)O)NC(=O)[C@@H](NC(=O)[C@H](CO)NC(=O)[C@H](CCCCN)NC(=O)[C@H](CS)NC(=O)[C@H](Cc1ccc(O)cc1)NC(=O)[C@H](CS)NC(=O)CNC(=O)[C@@H](N)CS)C(C)C)C(=O)N1CCC[C@H]1C(=O)N[C@H](C(=O)N[C@@H](CS)C(=O)N[C@@H](CC(C)C)C(=O)N[C@@H](CCCNC(=N)N)C(=O)N[C@@H](CO)C(=O)N[C@@H](CS)C(=O)N[C@@H](CS)C(=O)N[C@@H](CC(N)=O)C(=O)O)[C@@H](C)O` (H-CGCYCKSVDKKRRFFIPTCLRSCCN-OH), for which, in the data set with Escherichia coli, the fold change (FC) was 83.8.
